Columns and labels:
Ramos lymphoma cells = experiment: Subcutaneous Ramos lymphoma xenograft in NOD/SCID mice; type: in vivo, human; conditions: PG545 IP 20 mg/kg once weekly from one day after inoculation
Description: (§1) Lymphoma cells were also inoculated subcutaneously at the right flank of 6-weeks-old NOD/SCID mice (human cell lines) or C57BL/6 mice (E1-4 mouse lymphoma cells) (n=7). Mice were treated with heparanase inhibitors (PG545; SST0001) or neutralizing antibodies and xenografts size was determined by externally measuring the tumors in 2 dimensions using a caliper. At the end of the experiment, mice were sacrificed; tumor xenografts were removed, weighed and fixed for histological and immunohistochemical analyses (Weissmann et al, 2016, Proc Natl Acad Sci USA 113:704-709). […]
(§2) A. Specimens of human follicular (FIG. 1A, left panel) and diffuse (FIG. 1A, right panel) B-cell lymphomas were subjected for immunostaining applying anti-heparanase antibody. […] Lysates of Raji cells and extracts of tumor xenografts produced by Raji cells were applied onto dishes coated with sulfate-labelled ECM and heparanase enzymatic activity was determined as described (Vlodaysky I, et al. 1999, Nature Med 5(7):793-802). […] Extracts of control (Con) and PG545-treated tumor xenografts produced by Raji cells were applied onto dishes coated with sulfate labelled ECM and heparanase activity was determined as above (lower panel).

Raji lymphoma cells = experiment: Subcutaneous Raji lymphoma xenograft in NOD/SCID mice; type: in vivo, human
Description: as §1, §2

Daudi lymphoma cells = experiment: Subcutaneous Daudi lymphoma xenograft in NOD/SCID mice; type: in vivo, human; conditions: PG545 IP 20 mg/kg once weekly from one day after inoculation
Description: as §1, §2

OCI-LY-19 lymphoma cells = experiment: Subcutaneous OCI-LY-19 lymphoma xenograft in NOD/SCID mice; type: in vivo, human; conditions: OCI-LY-19, PG545 IP 20 mg/kg once weekly from one day after inoculation
Description: as §1, §2

SU-DHL-6 lymphoma cells = experiment: Subcutaneous SU-DHL-6 lymphoma xenograft in mice; type: in vivo, human; conditions: SU-DHL-6, PG545 IP 20 mg/kg once weekly from one day after inoculation
Description: The indicated lymphoma cells (5×10^6) were implanted subcutaneously in NOD/SCID mice (n=7) and mice were administered with PG545 (IP, 20 mg/kg, once weekly, starting one day after cell inoculation), or control vehicle (PBS; Con). At termination, tumors were removed, weighted and embedded in paraffin for histological and immunohistochemical analyses. Mice were similarly inoculated with the indicated lymphoma cells and were treated with the indicated concentration of PG545 (mg/kg once a week; FIG. 1C) or were treated with PG545 (20 mg/kg once a week) once the tumors became palpable (FIG. 1D). Shown are average (±SE) tumor weight (gr.).

[1] = system: human lymphoma cell lines; experiment: Subcutaneous human lymphoma xenografts, dose response and treatment of palpable tumors (cell lines only 'indicated'); type: in vivo
Description: as §1, §2

[2] = system: E1-4 mouse lymphoma cells; experiment: Subcutaneous E1-4 mouse lymphoma tumors; type: in vivo; conditions: E1-4 cells lacking heparanase activity
Description: (§3) Lymphoma cells were also inoculated subcutaneously at the right flank of 6-weeks-old NOD/SCID mice (human cell lines) or C57BL/6 mice (E1-4 mouse lymphoma cells) (n=7). Mice were treated with heparanase inhibitors (PG545; SST0001) or neutralizing antibodies and xenografts size was determined by externally measuring the tumors in 2 dimensions using a caliper. At the end of the experiment, mice were sacrificed; tumor xenografts were removed, weighed and fixed for histological and immunohistochemical analyses (Weissmann et al, 2016, Proc Natl Acad Sci USA 113:704-709). ESb mouse T-lymphoma cells (5×10^5) were similarly inoculated subcutaneously into SCID mice and spontaneous metastasis to the liver (Vlodaysky et al., 1983, Cancer Res 43:2704-2711) was examined after 3 weeks of treatment with PG545 or the neutralizing mAb, as described above. All animal experiments were approved by the Animal Care Committee of the Technion, Haifa, Israel.

[3] = system: ESb mouse T-lymphoma cells; experiment: ESb T-lymphoma spontaneous liver metastasis and survival; type: in vivo; conditions: PG545 20 mg/kg once a week
Description: as §3
FIG. 3A. HEK 293 cells were incubated with latent 65 kDa (upper panel) or GS3 constitutively active heparanase (1 μg/ml; third panel) and the indicated mAbs (10 μg/ml). The cell medium was aspirated at the time designated and cell lysates were subjected to immunoblotting applying anti-heparanase antibody (upper and third panels). […] Heparanase-transfected 293 cells were grown with control mouse IgM or mAb 9E8 for two days. Cells were then fixed with methanol and subjected to immunofluorescent staining applying anti heparanase antibody (second panel) or lysed and subjected to immunoblotting applying anti-heparanase antibody (fourth panel). Purified recombinant active heparanase (200 ng) was pre-incubated with control mouse IgM ( ? ), mAb 8A5 ( ? ), mAb 9E8 ( ? ), all at 2 μg/ml, for 2 h in serum-free RPMI medium on ice. The mixture was then applied onto ^35S-labeled ECM-coated dishes and heparanase activity was determined as described above (lower panel). FIG. 3B, C. […] Quantification of the extent of CD45 staining is shown graphically in the lower panel. […]

Raji-luciferase cells = experiment: Raji-luciferase lymphoma, tail vein inoculation, bone marrow growth by IVIS imaging; type: in vivo, human; conditions: PG545 20 mg/kg once a week
Description: Tumorigenicity. Luciferase-labelled CAG myeloma (5×10^6) or Raji lymphoma (1×10^6) cells were injected into the tail vein of NOD/SCID mice (n=5). Mice were treated with PG545 (20 mg/kg, once weekly), mAb 9E8 (600 μg/mouse) every other day starting one day following cell inoculation and tumor growth was examined by IVIS imaging. At termination, mice were sacrificed, the backbones were excised, fixed in formalin and following de-calcification with 10% EDTA solution were embedded in paraffin and subjected to histological and immunohistochemical analyses essentially as described (Weissmann et al, 2016, Proc Natl Acad Sci USA 113:704-709). Dose of 25-30 mg/kg (i.e., 500-600 μg mAb/mouse) is typical in cancer restraining experiments (Van Looy T, et al. 2015, Transl Oncol 8(2):112-118).
IVIS imaging. Bioluminescent imaging of the luciferase-expressing tumors was performed with a highly sensitive, cooled charge coupled device (CCD) camera mounted in a light-tight specimen box (IVIS; Xenogen Corp., Waltham, Mass.). Briefly, mice were injected intraperitoneally with D-luciferin substrate at 150 mg/kg, anesthetized and placed onto a stage inside the light-tight camera box, with continuous exposure to isoflurane (EZAnesthesia, Palmer, Pa.). Light emitted from the bioluminescent cells was detected by the IVIS camera system with images quantified for tumor burden using a log-scale color range set at 5×10^4 to 1×10^7 and measurement of total photon counts per second (PPS) using Living Image software (Xenogen) (Weissmann et al, 2016, Proc Natl Acad Sci USA 113:704-709).
FIG. 4A. Raji-luciferase cells (1×10^6) were injected into the tail vein of NOD/SCID mice (n=5). Mice were treated with PG545 (20 mg/kg once a week) starting one day after cell inoculation and IVIS imaging was applied to quantify tumor load. […] NOD/SCID mice (n=5) were inoculated (iv) with Raji-luciferase cells and mice were treated with mAb 9E8 (600 μg/mouse every other day) (FIG. 4C) and tumor growth was evaluated by IVIS imaging (left panels). Quantification of luciferase signals is shown graphically in the right lower panel.

heparanase = target: T1, heparanase (Homo sapiens, UniProt Q9Y251); conditions: prior art; cited from earlier work
T1 sequence (Q9Y251 36-543): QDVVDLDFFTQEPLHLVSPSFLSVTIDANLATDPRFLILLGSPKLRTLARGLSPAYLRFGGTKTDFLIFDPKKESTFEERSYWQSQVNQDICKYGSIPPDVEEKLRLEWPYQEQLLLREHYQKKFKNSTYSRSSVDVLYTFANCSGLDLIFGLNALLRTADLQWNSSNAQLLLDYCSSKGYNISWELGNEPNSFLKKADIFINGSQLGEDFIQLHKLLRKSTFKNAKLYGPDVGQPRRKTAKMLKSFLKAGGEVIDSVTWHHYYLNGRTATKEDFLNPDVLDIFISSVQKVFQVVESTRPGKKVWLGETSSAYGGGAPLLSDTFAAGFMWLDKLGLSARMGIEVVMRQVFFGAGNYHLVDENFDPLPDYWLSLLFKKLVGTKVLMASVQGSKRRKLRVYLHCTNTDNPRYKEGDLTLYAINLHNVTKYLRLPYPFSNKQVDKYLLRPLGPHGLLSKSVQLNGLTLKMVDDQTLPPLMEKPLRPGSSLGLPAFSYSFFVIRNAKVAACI

[4] = prior art; cited from earlier work

Compound | growth of tumor xenografts (tumor weight) (Ramos lymphoma cells) | growth of tumor xenografts (tumor weight) (Raji lymphoma cells; Raji, PG545 IP 20 mg/kg once weekly from one day after inoculation) | heparanase activity in tumor xenograft extracts (Raji lymphoma cells; extracts of Raji xenografts on sulfate labelled ECM) | growth of tumor xenografts (tumor weight) (Daudi lymphoma cells) | growth of tumor xenografts (tumor weight) (OCI-LY-19 lymphoma cells) | growth of tumor xenografts (tumor weight) (SU-DHL-6 lymphoma cells) | inhibition of tumor xenograft growth when treated once lesions became palpable ([1]; PG545 20 mg/kg once a week (FIG. 1D)) | dose dependence of xenograft growth attenuation ([1]; indicated concentrations mg/kg once a week (FIG. 1C)) | growth of tumor xenografts [2] | survival of mice ([3]; ESb s.c. in NOD/SCID mice) | liver metastasis ([3]; ESb) | blood vessel density (CD31) in bone marrow (Raji-luciferase cells) | expansion of Raji-luciferase cells in the bone marrow (Raji-luciferase cells; IVIS) | inhibition of heparanase activity (heparanase) | interaction with heparin and HS [4]
CC(C)CCC[C@@H](C)[C@H]1CC[C@H]2[C@@H]3CC[C@H]4C[C@@H](O[C@@H]5O[C@H](COS(=O)(=O)O)[C@@H](O[C@H]6O[C@H](COS(=O)(=O)O)[C@@H](O[C@H]7O[C@H](COS(=O)(=O)O)[C@@H](O[C@H]8O[C@H](COS(=O)(=O)O)[C@@H](OS(=O)(=O)O)[C@H](OS(=O)(=O)O)[C@H]8OS(=O)(=O)O)[C@H](OS(=O)(=O)O)[C@H]7OS(=O)(=O)O)[C@H](OS(=O)(=O)O)[C@H]6OS(=O)(=O)O)[C@H](OS(=O)(=O)O)[C@H]5OS(=O)(=O)O)CC[C@]4(C)[C@H]3CC[C@]12C [PG545] | markedly attenuated | markedly attenuated | inhibits heparanase activity | markedly attenuated | markedly attenuated | markedly attenuated | significant inhibition | dose-dependent manner | not inhibited | prolonged | reduced liver metastasis | decreased blood vessel density | markedly reduced |  | 
KKFKNSTYSRSSVD [KKDC] |  |  |  |  |  |  |  |  |  |  |  |  |  | inhibits heparanase enzymatic activity | high affinity
